Values after ≈ are worked out from the molar mass of the structure shown.
Assays:
M. tuberculosis H37Rv = experiment: M. tuberculosis inhibition assay (MABA, resazurin) MIC; assay type: cell-based; settings: Mycobacterium tuberculosis
M. bovis BCG Pasteur = experiment: microbe, parasite or virus in culture; assay type: cell-based, Mycobacterium bovis BCG; settings: for IC50: Mycobacterium tuberculosis variant bovis BCG, BCG, read-out: BCG pIC50 (converted)
HepG2 cells = settings: HepG2, 48 h
physchem [1] = settings: pH 7.4, kinetic from dmso stock
physchem [2] = settings: pH 7.4
[3] = system: non-replicating M. tuberculosis H37Rv; experiment: Activity against non-replicating Mycobacterium tuberculosis; settings: non-replicating conditions; for ACT In NR % inhibition: active/inactive call, experiments with inh > 50%
[4] = system: M. tuberculosis H37Rv in infected THP1 cells; experiment: Intracellular assay (luciferase H37Rv in THP1 cells); assay type: cell-based, Mycobacterium tuberculosis; settings: for IC50: Mycobacterium tuberculosis, H37RV, THP-1, 120 h, read-out: ACT In Intracellular pX50 (converted)

Row | SMILES | MIC (M. tuberculosis H37Rv) [µM] | IC50 (M. bovis BCG Pasteur) [nM] | TOX50 HepG2 (HepG2 cells) [µM] | solubility (physchem [1]) [µg/mL] | chromatographic logD (physchem [2]) | ACT In NR pXC50 [3] | ACT In NR % inhibition [3] | IC50 [4] [nM] | Mtb specific (inactive against M. bovis BCG) (M. bovis BCG Pasteur; hit in Mtb screen, not in BCG screen) | Inhibition of intracellular growth (active = pIC50 above 5) ([4]; THP1 cells, the one compound of 26 tested that was not active)
1 | COc1ccc2nccc(NC(=O)C3CCN(CCc4ccc(Cl)cc4)CC3)c2n1 [TCMDC-143649] | 0.2 (≈ 0.085 µg/mL) | 5010 | > 100 | 4 (≈ 9.41 µM) | 5.49 | 5,1 | ACTIVE 7 expts out of 10 with inh > 50% |  |  | 
2 | O=C(NCc1ccco1)N1CCN(Cc2ccc3c(c2)OCO3)CC1 [TCMDC-143650] | 1.25 (≈ 0.429 µg/mL) | 1260 | > 100 | 86 (≈ 250 µM) | 3.48 |  | INACTIVE |  |  | 
3 | CCCC/C=C/c1cc2ccncc2cc1OC1CCNCC1 [TCMDC-143651] | 1.6 (≈ 0.497 µg/mL) | 2510 | 16 | 36 (≈ 116 µM) | 3.61 |  | INACTIVE | 1260 |  | 
4 | O=C(NCc1ccco1)N1CCN(Cc2ccc3c(c2)CCO3)CC1 [TCMDC-143652] | 2 (≈ 0.683 µg/mL) | 2510 | > 100 | 88 (≈ 258 µM) | 3.47 |  | INACTIVE |  |  | 
5 | O=C(NCc1ccco1)N1CCN(Cc2ccc(Cl)s2)CC1 [TCMDC-143653] | 2 (≈ 0.68 µg/mL) | 1260 | > 100 | 98 (≈ 288 µM) | 4.82 |  | INACTIVE | 2510 |  | 
6 | Nc1ccccc1Nc1ccc(Cl)cc1 [TCMDC-143654] | 2 (≈ 0.437 µg/mL) | 100 | 79 | 59 (≈ 270 µM) | 5.76 | 4,5 | ACTIVE 8 expts out of 11 with inh > 50% | 15.8 |  | 
7 | NCC(c1cccs1)S(=O)(=O)c1ccccc1 (centres unmarked) [TCMDC-143655] | 2 (≈ 0.535 µg/mL) | 5010 | 32 | 134 (≈ 501 µM) | 2.5 |  | INACTIVE |  |  | 
8 | NS(=O)(=O)c1ccc(Nc2cnc3ccccc3n2)cc1 [TCMDC-143656] | 2 (≈ 0.601 µg/mL) | 6310 | > 100 | 112 (≈ 373 µM) | 1.07 |  | INACTIVE |  |  | 
9 | CNc1nc(SC)nnc1-c1cccc(Cl)c1Cl [TCMDC-143661] | 2.5 (≈ 0.753 µg/mL) | 12600 | > 100 | 85 (≈ 282 µM) | 4.94 |  | INACTIVE | 794 | Mtb specific | 
10 | Cc1ccc2oc(SCC(=O)Nc3nccs3)nc2n1 [TCMDC-143682] |  |  |  |  |  |  |  |  |  | all but one (TCMDC-143682) were active

From publication PMC4671658, “Release of 50 new, drug-like compounds and their computational target predictions for open source anti-tubercular drug discovery” (PLoS ONE, 2015)
